Laboratory results: patent US11154551B2, “HDAC1,2 inhibitors and methods of using the same” (UNIVERSITY OF UTAH RESEARCH FOUNDATION, priority 2014, dated 2021)
“Also recorded” adds a separate entry of the source.

Columns and labels:
Karpas-422 cells = assay: propidium-iodide / BrdU-PI cell cycle analysis; format: cell-based, human; conditions: 48 h
Experimental: (B): Quantitation of the cell cycle data in (A), compiled from three independent analyses. The graphs plotted the average percentage of cells in each phase of the cell cycle. […] (C): FACS analysis following BrdU-PI staining of Karpas-422 and SUDHL4 cells was performed following a 48 h or 72 h treatment with ACY-957.
Cell cycle analysis of propidium-iodide stained cells was performed with fixed cells. […] (C): FACS analysis following BrdU-PI staining of Karpas-422 and SUDHL4 cells was performed following a treatment with 2 μM ACY-957, 50 nM doxorubicin or both for 48 h.
(B): Quantitation of the cell cycle analysis performed in (A). Data from three independent cell cycle analyses were compiled and average percentage cells with standard errors were shown in this panel.
Propidium-iodide Cell Cycle Analysis.
Since these DLBCL cells expressed a hyperactive form of EZH2, pharmacological inhibition of EZH2 activity was considered a therapeutic strategy. […] GSK126 was a S-adenosyl-methionine-competitive inhibitor of EZH2 methyltransferase activity, and DZNep was a S-adenosylhomocysteine hydrolase inhibitor that disrupted the components of the PRC2 complex, thereby causing reduced chromatin-associated EZH2 levels.
To test this possibility, cell cycle analysis following treatment of Karpas-422 with ACY-957, doxorubicin, or ACY-957 in combination with doxorubicin was performed.

[1] = test system: normal NOD-SCID-Gamma mice; assay: hematoxylin and eosin staining of bone marrow and spleen, toxicity; conditions: 25 mg/kg ACY1035 (fifteen doses) or 0.5 mg/kg doxorubicin (six doses)
[2] = test system: doxorubicin-resistant EZH2GOF DLBCL (Karpas-422/NSG); assay: Karpas-422/NSG xenograft mouse model; format: in vivo; conditions: seventeen doses of ACY1035, five doses of doxorubicin
Experimental: (C) FACS analyses of human CD19 and IgM markers in peripheral blood of Karpas-422/NSG xenograft mice treated with solvent or doxorubicin (Doxo) or the HDAC1,2 inhibitor ACY1035 (H12IN). Seventeen doses of HDAC1,2 inhibitor and five doses of doxorubicin were administered.
The in vivo testing used a doxorubicin-resistant EZH2^GOF DLBCL (Karpas-422/NSG) mouse model and a doxorubicin-sensitive EZH2^WT DLBCL (SUDHL8/NSG) mouse model (FIG. 36). To create these models, NOD-SCID-Gamma (NSG) mice were injected intravenously (i.v.) with 1×10^6 Karpas-422 cells (chemoresistant and expressing the EZH2 gain-of-function mutant) or SUDHL8 cells (chemosensitive and expressing wild-type EZH2).

[3] = test system: Ph+ALL patient derived xenograft; assay: Ph+ALL patient-derived xenograft mouse model; format: in vivo; conditions: for human CD45 and CD19 markers in bone marrow: 25 mg/kg ACY1035 every other day i.p., 0.25 mg/kg doxorubicin once a week i.v., vs solvent; for white cell burden: vs solvent-treated mice
Experimental: Patient-derived xenograft mice were treated with either cyclodextrin (solvent) or 25 mg/kg ACY1035 every other day for a total of 21 doses. (A) The level of human CD19, CD45, and CD34 markers were assessed in the bone marrow of these mice by FACS analysis. For each FACS marker, the bars represent (from left to right): solvent, ACY1035, doxorubicin, ACY1035+doxorubicin. (B) Solvent-treated mice have bones infiltrated with white blood cells.
Additional experiments were performed to assess the therapeutic benefits of HDAC1,2 inhibition in vivo using primary Ph+ALL patient derived xenograft mouse models. NOD/SCID mice were irradiated with a sub lethal dose of irradiation to ablate the immune system in these mice. Immune-compromised NSG mice were then injected with 2×10^6 CD34+ cells isolated from a Ph+ ALL patient. Bone and spleens were harvested from these primary xenograft mice when the leukemia burden reached the maximum 90-95% level as determined by FACS analysis for human CD19 and CD45 markers. Cells isolated from bone marrow and spleen of these primary xenograft mice were frozen in liquid nitrogen until use. A mixture of bone marrow and spleen cells from the primary xenograft mice was then injected into a cohort of sub-lethally irradiated NOD/SCID mice. Mice were divided into four treatment groups: solvent, ACY1035, doxorubicin, and ACY1035 plus doxorubicin. Xenograft mice were injected according to one of the four treatment groups after 5 days post-xenograft induction, when human CD45 marker reached around 5-10% in the peripheral blood. Mice were injected with 25 mg/kg ACY1035 every other day via i.p. and 0.25 mg/kg doxorubicin once a week via i.v., a dosing schedule that has minimal toxicity in immune compromised mice.
In this PDX model, the majority of leukemia cells homed in the bone marrow and not spleen. […] Furthermore, a decrease in human CD34+ stem/progenitor cells was observed similar to the results obtained from in vitro studies (FIG. 33A). […] The disclosed mechanistic and preclinical results provide strong evidence that HDAC1,2 inhibition or HDAC1,2 inhibition in combination with doxorubicin can provide a very potent therapeutic for Ph+PreB-ALL.

[4] = test system: SupB15 Pre-B-ALL leukemia xenograft; assay: SupB15 Pre-B-ALL leukemia xenograft mice; format: in vivo, mouse; conditions: same concentration of doxorubicin
Text: Pre-B-ALL cell lines as well as Ph+ALL primary patient samples were engrafted in NOD scid gamma (NSG) mice to examine the efficacy of Hdac1,2 inhibitor in killing cells in vivo. We injected NSG mice with SupB15 cells (1×10^6) and Ph+Pre-B-ALL primary patient cells and monitored engraftment by flow cytometry using anti-human CD45/CD19 antibodies every week for 4-5 weeks. […] To examine the extent of leukemia infiltration in spleen and bone marrow, we performed IHC analysis.

[5] = test system: Karpas-422 (EZH2GOF) cells; assay: neutral comet assay of DSB repair; format: cell-based, human
Text: (A) Measurement of repair efficiency in SUDHL5 (EZH2^WT) and Karpas-422 (EZH2^GOF) cells using neutral comet assay that detects only double-strand breaks (DSBs). In the comet, the head (H) represents intact DNA and the tail (T) represents the number of DSBs in a single cell. Tail moment is a measure of length and intensity of DNA in the tail, and the average tail moments from 100 comets are indicated within the figure for each cell/treatment combination. Doxo indicates doxorubicin; H121N indicates HDAC1,2 inhibitor. (B) DNA damage in EZH2GOF cells following knockdown of HDAC1,2 using siRNA. NT indicates non-targeting control siRNA; HDAC1,2 siRNA indicates combined treatment with HDAC1 siRNA and HDAC2 siRNA. (C) Karpas-422 cells treated with DMSO solvent or HDAC1,2 inhibitor were subjected to microlaser irradiation. H3K27me3, γH2AX, Bmi-1, and serine2-phosphorylated RNA Polymerase II (engaged in transcriptional elongation) were monitored at laser break sites (arrows) after 15 minutes of recovery time. Numbers overlaying the images indicate percentages of cells with γH2AX lines that co-localized with H3K27me3, Bmi-1, or Pol2Ser2-P lines from at least four independent experiments (p value<0.01).
Indeed, EZH2, H3K27me3, and HDAC1,2 all localize to sites of DNA breaks, which links them to DNA repair. […]

SupB15 cells [6] = assay: BrdU ChIP assay, γH2AX on nascent chromatin; format: cell-based, human
Text: The majority of chromatin-bound proteins that decreased following ACY1035 plus doxorubicin treatment compared to ACY1035 treatment alone belong to DNA replication and DNA replication-associated repair processes (FIGS. 29A and 29B).

SupB15 cells [7] = assay: neutral comet assay; format: cell-based, human; conditions: 48 hours
Experimental: (§1) SupB15 cells were treated with 2 μM ACY1035, ACY1071, ACY957, or solvent (DMSO) for 48 hours. (A) Immunofluorescence with γH2AX was performed on treated SupB15 cells. The number of γH2AX foci was counted in around 100 cells for each treatment and classified into cells with no foci, 1-5, 6-10, and greater than 10 foci. (B) SupB15 cells treated with DMSO or ACY1035 for 48 hours were tested via neutral comet assay to measure the amount of double-strand breaks (DSBs), indicated by the tail.
We next asked whether double-strand break repair is impaired in SupB15 cells. We used neutral comet assays to measure the efficiency of double-strand break repair following treatment with ACY1035 for 48 hours. The neutral comet assay specifically measures double-strand breaks and not single-strand breaks. In this assay, control and HDAC1,2 inhibitor treated SupB15 cells were embedded in low melting agarose and subjected to electrophoresis to separate damaged DNA from intact DNA. Damaged DNA runs faster and therefore forms a tail, and the intact DNA is present in the head (FIG. 24B). DNA was visualized with sybrgreen staining.

[8] = test system: SupB15 (Ph+PreB-ALL) cells; assay: γH2AX immunofluorescence; format: cell-based, human; conditions: 2 μM, 48 hours
Experimental: as §1
BCR-ABL promotes DNA repair to prevent DNA damage accumulation in Philadelphia chromosome-positive (Ph+) leukemia cells. To examine the effect of various HDAC1,2-selective inhibitors on DNA repair and DNA damage response in Pre-B-ALL cells that express BCR-ABL, SupB15 (Ph+PreB-ALL) cells were treated with 2 μM ACY1035 or 2 μM ACY1071 or 2 μM ACY957 for 48 hours.

[9] = test system: normal NOD-SCID-Gamma mice; conditions: mouse
Hdac1,2 = assay: in vitro enzyme assays, IC50 determination (FIG. 17A); format: biochemical
Experimental: (A). For IC50 determination, recombinant HDAC enzymes were treated with HDAC1,2 or HDAC3 inhibitors in in vitro HDAC assays. (B). Western blots for H3K23ac using extracts from Pre-B-ALL SupB15 cells treated with increasing dose of HDAC1,2 inhibitor (ACY1035). (C). Hdac1^FI/FI, 2^FI/FI cells were infected with Ad-Cre virus to delete HDAC1 and HDAC2 (HDAC1,2 null) or uninfected (WT). (D). Hdac3^FI/FI cells were either uninfected (WT) or infected with Ad-Cre virus to delete Hdac3. HDAC3-null cells were treated with DMSO or the HDAC1,2 selective inhibitor.
We have determined 2 μM (FIG. 17B) as the minimum dose for the ACY compounds, respectively, that when added to cells increased H3K23ac (a mark targeted by Hdac1,2 but not Hdac3).

[10] = test system: non-transformed, mouse bone marrow Pro-B derived Baf3 cells or cord blood stem cells; assay: cell death in non-transformed cells; format: cell-based; conditions: 2 μM, within 72 hr
Text: Therefore, transformed lymphoma cells are more sensitive to HDAC1,2 inhibition when compared to the untransformed normal B-cells. HDAC1,2 inhibitor causes replication fork collapse in S-phase to trigger DNA damage response, and transformed cancer cells have increased DNA replication when compared to normal B cells. […] In addition to this property, EZH2^GOF DLBCL cells also have increased DNA repair compared to EZH2^WT DLBCL cells (FIG. 34A), which can also be targeted by HDAC1,2 inhibitor as it impairs the HDAC1,2 regulated DNA repair processes used by EZH2^GOF DLBCL cells for their survival.

Row | Structure (SMILES) | increase in the percentage of cells in G2/M phase (Karpas-422 cells; 50 nM doxorubicin) | cell death / sub-G1 population (Karpas-422 cells; 2 μM ACY-957, 50 nM doxorubicin or both) | morphology of bone marrow and spleen cells [1] | human CD19 and IgM population in peripheral blood [2] | human CD45 and CD19 markers in bone marrow [3] | white cell burden [3] | leukemia burden [4] | DSBs, comet tail moment [5] | γH2AX on the nascent chromatin (SupB15 cells [6]) | damaged DNA (comet tail) (SupB15 cells [7]) | DNA damage, quantitation of γH2AX foci [8] | toxic effects in vivo [9] | inhibition of Hdac1,2 activities compared to Hdac3 (IC50 values) (Hdac1,2) | cell death [10]
1 | COc1cccc2c1C(=O)c1c(O)c3c(c(O)c1C2=O)C[C@@](O)(C(=O)CO)C[C@@H]3O[C@H]1C[C@H](N)[C@H](O)[C@H](C)O1 [doxorubicin, reference compound] | 1.5 to 2 fold | modest increase in cell death | No changes in the morphology of spleen or bone marrow cells; also recorded: no abnormalities or changes in the cell morphology in bone marrow or spleens | no significant change in these markers | significant reduction in the human CD45 and CD19 markers | decrease in the white cell burden | significantly decreased leukemia burden | far less sensitive to doxorubicin | – | – | – | – | – | –
2 | Nc1ccc(-c2cccs2)cc1NC(=O)c1ccc2c(c1)cc(C1CC1)n2CCN1CCOCC1 [ACY-1035, N-(2-amino-5-(thiophen-2-yl)phenyl)-2-cyclopropyl-1-(2-morpholinoethyl)-1H-indole-5-carboxamide] | – | – | No changes in the morphology of spleen or bone marrow cells; also recorded: no abnormalities or changes in the cell morphology in bone marrow or spleens | significant decrease in human CD19 and IgM population in peripheral blood | significant reduction in the human CD45 and CD19 markers; also recorded: greater decrease in the human leukemia markers when compared to doxorubicin-treated mice | decrease in the white cell burden | – | – | increase in γH2AX on the nascent chromatin | increase in damaged DNA | statistically significant increase in DNA damage | does not have toxic effects in vivo | very selectively | did not cause any cell death
